“And” between values parts separate entries of the source, which are not always exact repeats. Identical values can stand only once. Like-named read-outs stand apart in the source and are kept apart here.
Test system: toxicologically relevant rat genes (rat CT array)

Brc1ccccc1 [bromobenzene]
Phase-1 RCT-192 expression (treatment/control) (24 h, dose 200, listed as BRB): 1.596
Phase-1 RCT-213 expression (treatment/control) (24 h, dose 200, listed as BRB): 1.467
Phase-1 RCT-214 expression (treatment/control) (24 h, dose 200, listed as BRB): 0.4191 and 0.7327 and 0.3835
Phase-1 RCT-239 expression (treatment/control) (24 h, dose 200, listed as BRB): 0.6828
Phase-1 RCT-258 expression (treatment/control) (24 h, dose 200, listed as BRB): 0.9631 and 1.542
Phase-1 RCT-271 expression (treatment/control) (24 h, dose 200, listed as BRB): 0.5825 and 0.5279
Phase-1 RCT-291 expression (treatment/control) (24 h, dose 200, listed as BRB): 1.199 and 0.6861
Phase-1 RCT-295 expression (treatment/control) (24 h, dose 200, listed as BRB): 2.141 and 1.945 and 1.916
Proliferating cell nuclear antigen gene expression (treatment/control) (24 h, dose 200, listed as BRB): 1.304 and 0.7642 and 1.223
Pyruvate kinase, muscle expression (treatment/control) (24 h, dose 200, listed as BRB): 1.814 and 1.17 and 1.778
Ref-1 expression (treatment/control) (24 h, dose 200, listed as BRB): 2.201 and 1.238 and 2.06
Ribosomal protein L13A expression (treatment/control) (24 h, dose 200, listed as BRB): 2.014 and 1.811 and 2.099
Ribosomal protein S8 expression (treatment/control) (24 h, dose 200, listed as BRB): 2.657 and 2.216 and 2.391
Ribosomal protein S9 expression (treatment/control) (24 h, dose 200, listed as BRB): 1.821 and 1.272 and 1.544
Ribosomal protein S17 expression (treatment/control) (24 h, dose 200, listed as BRB): 2.853 and 2.061 and 2.44
Superoxide dismutase Mn expression (treatment/control) (24 h, dose 200, listed as BRB): 2.675 and 1.611 and 3.075
T-cell cyclophilin expression (treatment/control) (24 h, dose 200, listed as BRB): 1.63 and 1.482 and 1.522
Thymosin beta-10 expression (treatment/control) (24 h, dose 200, listed as BRB): 1.331 and 1.367 and 1.373
Ubiquitin conjugating enzyme (RAD 6 homologue) expression (treatment/control) (24 h, dose 200, listed as BRB): 1.182 and 0.8017 and 1.22
Uncoupling protein 2 expression (treatment/control) (24 h, dose 200, listed as BRB): 0.9873 and 1.103
c-H-ras expression (treatment/control) (24 h, dose 200, listed as BRB): 1.3
c-jun expression (treatment/control) (24 h, dose 200, listed as BRB): 1.819 and 1.494 and 2.242
p53 expression (treatment/control) (24 h, dose 200, listed as BRB): 1.448 and 1.7
{Ribosomal protein L6} expression (treatment/control) (24 h, dose 200, listed as BRB): 2.964 and 2.141 and 2.538
14-3-3 zeta expression (treatment/control) (24 h, dose 800, listed as BRB): 1.787 and 1.416 and 1.415
17-beta hydroxysteroid dehydrogenase, type 2 expression (treatment/control) (24 h, dose 800, listed as BRB): 0.2858 and 0.3548 and 0.3188
Cathepsin L, sequence 2 expression (treatment/control) (24 h, dose 800, listed as BRB): 3.444 and 2.804 and 1.941
Dynamin-1 (D100) expression (treatment/control) (24 h, dose 800, listed as BRB): 0.7266 and 0.7238 and 0.7854
Gadd45 expression (treatment/control) (24 h, dose 800, listed as BRB): 3.152 and 4.261 and 2.965
Gamma-actin, cytoplasmic expression (treatment/control) (24 h, dose 800, listed as BRB): 4.159 and 3.751 and 3.387
Insulin-like growth factor binding protein 1 expression (treatment/control) (24 h, dose 800, listed as BRB): 2.338 and 2.353 and 1.62
L-gulono-gamma-lactone oxidase expression (treatment/control) (24 h, dose 800, listed as BRB): 0.3036 and 0.326 and 0.3525
Matrin F/G expression (treatment/control) (24 h, dose 800, listed as BRB): 0.4315 and 0.4295 and 0.6079
Ornithine decarboxylase expression (treatment/control) (24 h, dose 800, listed as BRB): 2.92 and 2.902 and 2.002
PAR interacting protein expression (treatment/control) (24 h, dose 800, listed as BRB): 3.554 and 2.34
Phase-1 RCT-33 expression (treatment/control) (24 h, dose 800, listed as BRB): 0.6976 and 0.5633 and 0.5757
Phase-1 RCT-36 expression (treatment/control) (24 h, dose 800, listed as BRB): 0.7359 and 0.7782
Phase-1 RCT-38 expression (treatment/control) (24 h, dose 800, listed as BRB): 0.4296 and 0.4024 and 0.4536
Phase-1 RCT-39 expression (treatment/control) (24 h, dose 800, listed as BRB): 1.555 and 1.399
Phase-1 RCT-40 expression (treatment/control) (24 h, dose 800, listed as BRB): 0.4257 and 0.4952 and 0.445
Phase-1 RCT-48 expression (treatment/control) (24 h, dose 800, listed as BRB): 0.6158 and 0.633
Phase-1 RCT-49 expression (treatment/control) (24 h, dose 800, listed as BRB): 2.478 and 2.062 and 1.658
Phase-1 RCT-50 expression (treatment/control) (24 h, dose 800, listed as BRB): 2.438 and 2.537 and 1.76
Phase-1 RCT-68 expression (treatment/control) (24 h, dose 800, listed as BRB): 2.05 and 1.892 and 1.519
Phase-1 RCT-78 expression (treatment/control) (24 h, dose 800, listed as BRB): 0.5752 and 0.6922 and 0.6621
Phase-1 RCT-83 expression (treatment/control) (24 h, dose 800, listed as BRB): 0.6019 and 0.6858 and 0.5634
Phase-1 RCT-89 expression (treatment/control) (24 h, dose 800, listed as BRB): 0.4544 and 0.462 and 0.4723
Phase-1 RCT-92 expression (treatment/control) (24 h, dose 800, listed as BRB): 0.4761 and 0.6497 and 0.7002
Phase-1 RCT-128 expression (treatment/control) (24 h, dose 800, listed as BRB): 0.5684 and 0.564 and 0.6
Phase-1 RCT-144 expression (treatment/control) (24 h, dose 800, listed as BRB): 3.092 and 2.983 and 2.106
Phase-1 RCT-145 expression (treatment/control) (24 h, dose 800, listed as BRB): 2.75 and 1.96 and 1.846
Phase-1 RCT-180 expression (treatment/control) (24 h, dose 800, listed as BRB): 1.726
Phase-1 RCT-182 expression (treatment/control) (24 h, dose 800, listed as BRB): 0.5041 and 0.56 and 0.6572
Phase-1 RCT-207 expression (treatment/control) (24 h, dose 800, listed as BRB): 3.826 and 2.754 and 2.464
Phase-1 RCT-213 expression (treatment/control) (24 h, dose 800, listed as BRB): 2.021 and 2.316 and 1.605
Phase-1 RCT-256 expression (treatment/control) (24 h, dose 800, listed as BRB): 0.3752 and 0.4196 and 0.4307
Phase-1 RCT-258 expression (treatment/control) (24 h, dose 800, listed as BRB): 1.65
Phase-1 RCT-264 expression (treatment/control) (24 h, dose 800, listed as BRB): 0.3546 and 0.4999 and 0.3553
Phase-1 RCT-271 expression (treatment/control) (24 h, dose 800, listed as BRB): 0.5889 and 0.6221
Phase-1 RCT-288 expression (treatment/control) (24 h, dose 800, listed as BRB): 0.3511 and 0.3915 and 0.4038
Phase-1 RCT-291 expression (treatment/control) (24 h, dose 800, listed as BRB): 0.6663 and 0.746 and 0.732
Phase-1 RCT-295 expression (treatment/control) (24 h, dose 800, listed as BRB): 1.75 and 2.065 and 1.52
Phase-1 RCT-296 expression (treatment/control) (24 h, dose 800, listed as BRB): 0.3839 and 0.27 and 0.2605
Ribosomal protein S17 expression (treatment/control) (24 h, dose 800, listed as BRB): 2.61 and 2.612 and 1.969
Senescence marker protein-30 expression (treatment/control) (24 h, dose 800, listed as BRB): 0.1397 and 0.1646 and 0.1474
Zinc finger protein expression (treatment/control) (24 h, dose 800, listed as BRB): 3.935 and 2.153 and 2.076
Paraoxonase 1 expression (treatment/control) (rat, in vivo): 0.8235 and 0.866 and 0.513
